Results taken from patent US20100130469A1, “2, 6-NAPHTHRIDINE DERIVATIVES” (priority 2007, published 2010).

Assays:
PKCα = biological target: T1, PKCα (Homo sapiens, UniProt P17252); assay: Protein Kinase Cα assay; format: biochemical; conditions: ratio of IC50 values
T1 construct: purchased Oxford Biomedical Research
Protocol: (§1) The compounds of the invention are tested for their activity on different PKC isotypes according to the following method. Assay is performed in a white with clear bottom 384-well microtiterplate with non-binding surface. The reaction mixture (25 μl) contains 1.5 μM of a tridecapeptide acceptor substrate that mimics the pseudo substrate sequence of PKC a with the Ala→Ser replacement, 10 μM ^33P-ATP, 10 mM Mg(NO3)2, 0.2 mM CaCl2, PKC at a protein concentration varying from 25 to 400 ng/ml (depending on the isotype used), lipid vesicles (containing 30 mol % phosphatidylserine, 5 mol % DAG and 65 mol % phosphatidylcholine) at a final lipid concentration of 0.5 mM, in 20 mM Tris-HCl buffer pH 7.4+0.1% BSA. Incubation is performed for 60 min at room temperature.
Human recombinant PKCα was obtained from Oxford Biomedical Research and is used under the assay conditions as described under Section A.1 above.

PKCβ1 = biological target: T2, PKCβ1 (Homo sapiens, UniProt P05771); assay: Protein Kinase Cβ1 assay; format: biochemical; conditions: ratio of IC50 values
T2 construct: purchased Oxford Biomedical Research
T2 sequence (P05771 whole entry): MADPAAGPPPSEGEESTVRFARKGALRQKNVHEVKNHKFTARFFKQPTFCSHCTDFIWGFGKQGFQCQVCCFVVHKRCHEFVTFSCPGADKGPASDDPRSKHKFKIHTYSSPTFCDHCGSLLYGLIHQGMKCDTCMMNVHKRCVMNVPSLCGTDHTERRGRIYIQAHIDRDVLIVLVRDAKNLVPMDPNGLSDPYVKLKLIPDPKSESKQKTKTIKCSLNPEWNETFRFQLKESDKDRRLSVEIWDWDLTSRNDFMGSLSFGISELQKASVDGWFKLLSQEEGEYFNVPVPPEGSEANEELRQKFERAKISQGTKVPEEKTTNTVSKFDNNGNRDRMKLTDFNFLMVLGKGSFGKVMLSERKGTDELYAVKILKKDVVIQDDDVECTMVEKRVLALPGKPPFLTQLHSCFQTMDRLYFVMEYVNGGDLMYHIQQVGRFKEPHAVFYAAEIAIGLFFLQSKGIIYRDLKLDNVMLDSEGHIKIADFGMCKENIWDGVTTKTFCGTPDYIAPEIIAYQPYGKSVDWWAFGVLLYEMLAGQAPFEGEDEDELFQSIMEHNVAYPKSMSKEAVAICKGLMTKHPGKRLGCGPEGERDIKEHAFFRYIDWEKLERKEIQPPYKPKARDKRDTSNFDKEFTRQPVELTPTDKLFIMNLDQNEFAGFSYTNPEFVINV
Protocol: as §1
Human recombinant PKCβ1 was obtained from Oxford Biomedical Research and is used under the assay conditions as described under Section A.1 above.

[1] = system: Bone marrow cells from CBA mice; assay: Bone Marrow Cell Proliferation (BM) assay; format: cell-based; conditions: mouse cells
Protocol: Bone marrow cells from CBA mice (2.5×10^4 cells per well in flat bottom tissue culture microtiter plates) are incubated in 100 μL RPMI medium containing 10% FCS, 100 U/mL penicillin, 100 μg/mL streptomycin (Gibco BRL, Baselm Switzerland), 50 μM 2-mercaptoethanol (Fluka, Buchs, Switzerland), WEHI-3 conditioned medium (7.5% v/v) and L929 conditioned medium (3% v/v) as a source of growth factors and serially diluted compounds. Seven three-fold dilution steps in duplicates per test compounds are performed. After four days of incubation 1 μCi ^3H-thymidine is added. Cells are harvested after an additional five-hour incubation period, and incorporated ^3H-thymidine is determined according to standard procedures. Conditioned media are prepared as follows. WEHI-3 cells (ATCC TIB68) and L929 cells (ATCC CCL 1) are grown in RPMI medium until confluence for 4 days and one week, respectively. Cells are harvested, resuspended in the same culture flasks in medium C containing 1% FCS (Schreier and Tess 1981) for WEHI-3 cells and RPMI medium for L929 cells and incubated for 2 days (WEHI-3) or one week (L929). The supernatant is collected, filtered through 0.2 μm and stored in aliquots at −80° C. Cultures without test compounds and without WEHI-3 and L929 supernatants are used as low control values. Low control values are substracted from all values. […]

PKCδ = biological target: T3, PKCδ (Homo sapiens, UniProt Q05655); assay: Protein Kinase Cδ assay; format: biochemical; conditions: ratio of IC50 values
T3 construct: purchased Oxford Biomedical Research
T3 sequence (Q05655 whole entry): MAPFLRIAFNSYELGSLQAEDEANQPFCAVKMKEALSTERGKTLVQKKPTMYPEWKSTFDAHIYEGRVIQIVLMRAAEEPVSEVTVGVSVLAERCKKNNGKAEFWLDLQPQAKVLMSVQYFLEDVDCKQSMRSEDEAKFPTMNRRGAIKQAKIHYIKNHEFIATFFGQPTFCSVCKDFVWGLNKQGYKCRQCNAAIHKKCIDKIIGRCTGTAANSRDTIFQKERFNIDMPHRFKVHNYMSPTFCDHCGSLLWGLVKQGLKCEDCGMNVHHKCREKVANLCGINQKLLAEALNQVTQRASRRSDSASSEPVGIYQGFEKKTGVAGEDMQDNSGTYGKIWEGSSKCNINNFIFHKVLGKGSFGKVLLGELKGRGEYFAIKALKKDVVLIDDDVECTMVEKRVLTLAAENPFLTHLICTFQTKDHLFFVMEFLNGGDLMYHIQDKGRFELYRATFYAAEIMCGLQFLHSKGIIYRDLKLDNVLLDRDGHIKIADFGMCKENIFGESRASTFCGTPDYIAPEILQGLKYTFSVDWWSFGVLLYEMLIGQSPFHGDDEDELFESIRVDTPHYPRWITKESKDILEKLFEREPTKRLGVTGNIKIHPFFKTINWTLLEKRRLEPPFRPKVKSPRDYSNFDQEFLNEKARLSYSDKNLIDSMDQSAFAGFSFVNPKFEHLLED
Protocol: as §1
Human recombinant PKC was obtained from Oxford Biomedical Research and is used under the assay conditions as described under Section A.1 above.

PKCθ = PKCθ (Homo sapiens, UniProt Q04759); assay: Protein Kinase C θ assay; format: biochemical; conditions: ratio of IC50 values
Chain of PKCθ (Q04759 whole entry): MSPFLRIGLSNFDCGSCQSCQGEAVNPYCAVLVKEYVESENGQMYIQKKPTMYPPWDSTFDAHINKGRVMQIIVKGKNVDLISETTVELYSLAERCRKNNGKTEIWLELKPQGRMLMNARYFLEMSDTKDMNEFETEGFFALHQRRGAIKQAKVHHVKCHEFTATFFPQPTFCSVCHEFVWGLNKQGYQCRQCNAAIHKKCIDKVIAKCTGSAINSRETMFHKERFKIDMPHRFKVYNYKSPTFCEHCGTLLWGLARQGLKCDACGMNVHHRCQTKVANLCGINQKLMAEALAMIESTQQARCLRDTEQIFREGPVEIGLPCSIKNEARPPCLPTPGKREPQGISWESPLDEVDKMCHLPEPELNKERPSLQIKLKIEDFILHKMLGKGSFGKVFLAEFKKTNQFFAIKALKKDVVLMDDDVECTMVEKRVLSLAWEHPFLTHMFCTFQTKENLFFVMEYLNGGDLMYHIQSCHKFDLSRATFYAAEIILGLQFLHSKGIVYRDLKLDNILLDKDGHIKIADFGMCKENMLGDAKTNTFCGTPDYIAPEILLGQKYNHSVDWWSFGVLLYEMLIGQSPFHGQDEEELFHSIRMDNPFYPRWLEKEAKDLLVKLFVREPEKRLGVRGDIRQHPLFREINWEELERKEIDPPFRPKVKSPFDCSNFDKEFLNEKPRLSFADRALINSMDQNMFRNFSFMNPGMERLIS
Protocol: as §1
Human recombinant PKCθ is used under the assay conditions as described above.

PKCε = biological target: T4, PKCε (Homo sapiens, UniProt Q02156); assay: Protein Kinase Cε assay; format: biochemical; conditions: ratio of IC50 values
T4 construct: purchased Oxford Biomedical Research
T4 sequence (Q02156 1-737): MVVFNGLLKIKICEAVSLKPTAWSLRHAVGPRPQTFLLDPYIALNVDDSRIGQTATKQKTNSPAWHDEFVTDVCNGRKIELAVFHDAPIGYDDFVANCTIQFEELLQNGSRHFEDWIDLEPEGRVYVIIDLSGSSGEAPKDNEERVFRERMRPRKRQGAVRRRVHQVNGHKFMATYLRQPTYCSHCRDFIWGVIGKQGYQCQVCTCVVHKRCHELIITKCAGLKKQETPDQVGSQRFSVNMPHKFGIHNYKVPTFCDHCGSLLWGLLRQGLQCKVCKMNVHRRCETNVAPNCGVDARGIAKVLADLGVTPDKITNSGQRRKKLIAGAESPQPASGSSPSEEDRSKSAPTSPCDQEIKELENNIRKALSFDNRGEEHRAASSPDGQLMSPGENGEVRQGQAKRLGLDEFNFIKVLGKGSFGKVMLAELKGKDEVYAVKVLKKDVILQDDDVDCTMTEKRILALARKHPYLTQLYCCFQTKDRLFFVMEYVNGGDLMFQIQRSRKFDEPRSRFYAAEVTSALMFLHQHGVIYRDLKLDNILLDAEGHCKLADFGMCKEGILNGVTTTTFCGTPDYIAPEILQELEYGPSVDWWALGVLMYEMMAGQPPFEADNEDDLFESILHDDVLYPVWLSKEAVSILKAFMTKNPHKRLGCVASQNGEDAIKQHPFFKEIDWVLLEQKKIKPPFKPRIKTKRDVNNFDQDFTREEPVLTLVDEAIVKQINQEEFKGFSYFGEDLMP
Protocol: as §1
Human recombinant PKCη was obtained from Oxford Biomedical Research and is used under the assay conditions as described under Section A.1 above.

PKCη = biological target: T5, PKCη (Homo sapiens, UniProt P24723); assay: Protein Kinase Cη assay; format: biochemical; conditions: human recombinant PKCη
T5 construct: purchased PanVera
T5 sequence (P24723 whole entry): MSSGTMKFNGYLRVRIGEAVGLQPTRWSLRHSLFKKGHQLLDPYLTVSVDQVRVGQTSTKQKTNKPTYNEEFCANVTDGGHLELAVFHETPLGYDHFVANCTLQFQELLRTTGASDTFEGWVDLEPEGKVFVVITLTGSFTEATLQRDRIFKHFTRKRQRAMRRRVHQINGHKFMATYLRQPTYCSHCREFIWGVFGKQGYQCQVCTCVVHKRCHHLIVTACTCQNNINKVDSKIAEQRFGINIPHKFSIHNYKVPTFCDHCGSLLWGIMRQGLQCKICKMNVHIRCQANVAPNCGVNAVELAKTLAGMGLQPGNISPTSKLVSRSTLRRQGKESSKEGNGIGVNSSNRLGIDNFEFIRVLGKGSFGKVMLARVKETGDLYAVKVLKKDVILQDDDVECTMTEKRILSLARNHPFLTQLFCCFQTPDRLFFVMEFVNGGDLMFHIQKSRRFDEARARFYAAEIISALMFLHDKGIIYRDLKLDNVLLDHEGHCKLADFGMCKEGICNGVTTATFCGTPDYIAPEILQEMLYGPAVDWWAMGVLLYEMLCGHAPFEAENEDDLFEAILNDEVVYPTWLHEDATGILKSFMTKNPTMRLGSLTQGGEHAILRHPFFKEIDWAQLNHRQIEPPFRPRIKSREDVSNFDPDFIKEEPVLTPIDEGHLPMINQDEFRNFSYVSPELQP
Protocol: as §1
Human recombinant PKCη was obtained from PanVera and is used under the assay conditions as described under Section A.1 above.

Compound | α/η: ratio of the IC50 value for PKCα to the IC50 value for PKCη (PKCα) | β/η: ratio of the IC50 value for PKC β to the IC50 value for PKCη (PKCβ1) | BM/MLR: ratio of IC50 values of BM assay and MLR assay [1] | δ/η: ratio of the IC50 value for PKCδ to the IC50 value for PKCη (PKCδ) | θ/η: ratio of the IC50 value for PKCθ to the IC50 value for PKCη (PKCθ) | ε/η: ratio of the IC50 value for PKCε to the IC50 value for PKCη (PKCε) | IC50 (PKCη) [nM]
C[C@@H]1CN(c2nc(-c3ccncc3)cc3cnccc23)[C@@H](C)CN1 (racemic) [Example 23, Rac-1-((2S,5R)-2,5-Dimethyl-piperazin-1-yl)-3-pyridin-4-yl-[2,6]naphthyridine] | 17 | 14 | 24 | 15 | 26 | 1 | 
C[C@H](N)CNc1nc(-c2ccncc2)cc2cnccc12 [Example 71a, (S)—N*1*-(3-Pyridin-4-yl-[2,6]naphthyridin-1-yl)-propane-1,2-diamine] | 506 | 196 | 30 | 4 | 30 | 3 | 
CC(C)(N)COc1nc(-c2ccncc2)cc2cnccc12 [Example 81, 1,1-Dimethyl-2-(3-pyridin-4-yl-[2,6]naphthyridin-1-yloxy)-ethylamine] |  |  |  |  |  |  | 162
CC(C)(N)CNc1cc(-c2ccncc2)cc2cnccc12 [Example 83, 2-Methyl-N*1*-(7-pyridin-4-yl-isoquinolin-5-yl)-propane-1,2-diamine] |  |  |  |  |  |  | 54
